# Test results from article PMC8800111 (The Journal of Biological Chemistry, 2021).
# Columns and labels:
# Type in all cases: cell-based
# [1] = target: proteins of U3A human fibrosarcoma cells (4462 proteins detected) (Homo sapiens, UniProt O00231); conditions: protein PSMD11; U3A cells
# [2] = target: proteins of U3A human fibrosarcoma cells (4462 proteins detected) (Homo sapiens, UniProt O94829); conditions: protein IPO13; U3A cells
# [3] = target: proteins of U3A human fibrosarcoma cells (4462 proteins detected) (Homo sapiens, UniProt O95104); conditions: protein SCAF4; U3A cells
# [4] = target: proteins of U3A human fibrosarcoma cells (4462 proteins detected) (Homo sapiens, UniProt P00568); conditions: protein AK1, U3A cells
# [5] = target: proteins of U3A human fibrosarcoma cells (4462 proteins detected) (Homo sapiens, UniProt P05121); conditions: protein SERPINE1; U3A cells
# [6] = target: proteins of U3A human fibrosarcoma cells (4462 proteins detected) (Homo sapiens, UniProt P09972); conditions: protein ALDOC, U3A cells
# [7] = target: proteins of U3A human fibrosarcoma cells (4462 proteins detected) (Homo sapiens, UniProt P26038); conditions: protein MSN, U3A cells
# [8] = target: proteins of U3A human fibrosarcoma cells (4462 proteins detected) (Homo sapiens, UniProt P48507); conditions: protein GCLM; U3A cells
# [9] = target: proteins of U3A human fibrosarcoma cells (4462 proteins detected) (Homo sapiens, UniProt P78371); conditions: protein CCT2; U3A cells
# [10] = target: proteins of U3A human fibrosarcoma cells (4462 proteins detected) (Homo sapiens, UniProt Q05397); conditions: protein PTK2; U3A cells
# [11] = target: proteins of U3A human fibrosarcoma cells (4462 proteins detected) (Homo sapiens, UniProt Q13263); conditions: protein TRIM28; U3A cells
# [12] = target: proteins of U3A human fibrosarcoma cells (4462 proteins detected) (Homo sapiens, UniProt Q14353); conditions: protein GAMT; U3A, 10 μM, 2 h
# [13] = target: proteins of U3A human fibrosarcoma cells (4462 proteins detected) (Homo sapiens, UniProt Q14839); conditions: protein CHD4; soluble abundance after heat, U3A cells
# [14] = target: proteins of U3A human fibrosarcoma cells (4462 proteins detected) (Homo sapiens, UniProt Q16658); conditions: protein FSCN1, U3A cells
# [15] = target: proteins of U3A human fibrosarcoma cells (4462 proteins detected) (Homo sapiens, UniProt Q6PD74); conditions: protein AAGAB; U3A cells
# [16] = target: proteins of U3A human fibrosarcoma cells (4462 proteins detected) (Homo sapiens, UniProt Q7L5N1); conditions: protein COPS6; U3A cells
# [17] = target: proteins of U3A human fibrosarcoma cells (4462 proteins detected) (Homo sapiens, UniProt Q86TB9); conditions: protein PATL1; U3A cells
# [18] = target: proteins of U3A human fibrosarcoma cells (4462 proteins detected) (Homo sapiens, UniProt Q8TDN6); conditions: protein BRIX1; U3A cells
# [19] = target: proteins of U3A human fibrosarcoma cells (4462 proteins detected) (Homo sapiens, UniProt Q92797); conditions: protein SYMPK; soluble abundance after heat, U3A cells
# [20] = target: proteins of U3A human fibrosarcoma cells (4462 proteins detected) (Homo sapiens, UniProt Q96AC1); conditions: protein FERMT2; U3A cells
# [21] = target: proteins of U3A human fibrosarcoma cells (4462 proteins detected) (Homo sapiens, UniProt Q96PV6); conditions: protein LENG8; U3A, 10 μM, 2 h
# [22] = target: proteins of U3A human fibrosarcoma cells (4462 proteins detected) (Homo sapiens, UniProt Q96SN8); conditions: protein CDK5RAP2; U3A, 10 μM, 2 h
# [23] = target: proteins of U3A human fibrosarcoma cells (4462 proteins detected) (Homo sapiens, UniProt Q9BXS5); conditions: protein AP1M1; U3A cells
# [24] = target: proteins of U3A human fibrosarcoma cells (4462 proteins detected) (Homo sapiens, UniProt Q9BY32); conditions: protein ITPA; soluble abundance after heat, U3A cells
# [25] = target: proteins of U3A human fibrosarcoma cells (4462 proteins detected) (Homo sapiens, UniProt Q9GZQ3); conditions: protein COMMD5; U3A cells
# [26] = target: proteins of U3A human fibrosarcoma cells (4462 proteins detected) (Homo sapiens, UniProt Q9H1D9); conditions: protein POLR3F; U3A cells
# [27] = target: proteins of U3A human fibrosarcoma cells (4462 proteins detected) (Homo sapiens, UniProt Q9H9F9); conditions: protein ACTR5; U3A cells
# [28] = target: proteins of U3A human fibrosarcoma cells (4462 proteins detected) (Homo sapiens, UniProt Q9H9Q2); conditions: protein COPS7B; U3A cells
# [29] = target: proteins of U3A human fibrosarcoma cells (4462 proteins detected) (Homo sapiens, UniProt Q9NVU7); conditions: protein SDAD1; soluble abundance after heat, U3A cells
# [30] = target: proteins of U3A human fibrosarcoma cells (4462 proteins detected) (Homo sapiens, UniProt Q9NWV8); conditions: protein BABAM1; soluble abundance after heat, U3A cells
# Chain of proteins of U3A human fibrosarcoma cells (4462 proteins detected) (Homo sapiens, UniProt Q6PD74) (Q6PD74 whole entry): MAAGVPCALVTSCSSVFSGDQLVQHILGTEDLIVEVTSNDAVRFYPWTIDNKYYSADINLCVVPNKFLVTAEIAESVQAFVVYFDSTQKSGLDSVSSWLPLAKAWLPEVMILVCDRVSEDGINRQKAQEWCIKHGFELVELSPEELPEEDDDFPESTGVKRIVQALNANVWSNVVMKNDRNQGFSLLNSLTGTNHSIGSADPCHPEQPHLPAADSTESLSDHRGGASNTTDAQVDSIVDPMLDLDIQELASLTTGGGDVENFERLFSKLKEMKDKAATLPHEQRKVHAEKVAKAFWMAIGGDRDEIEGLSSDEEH
# Chain of proteins of U3A human fibrosarcoma cells (4462 proteins detected) (Homo sapiens, UniProt O95104) (O95104 whole entry): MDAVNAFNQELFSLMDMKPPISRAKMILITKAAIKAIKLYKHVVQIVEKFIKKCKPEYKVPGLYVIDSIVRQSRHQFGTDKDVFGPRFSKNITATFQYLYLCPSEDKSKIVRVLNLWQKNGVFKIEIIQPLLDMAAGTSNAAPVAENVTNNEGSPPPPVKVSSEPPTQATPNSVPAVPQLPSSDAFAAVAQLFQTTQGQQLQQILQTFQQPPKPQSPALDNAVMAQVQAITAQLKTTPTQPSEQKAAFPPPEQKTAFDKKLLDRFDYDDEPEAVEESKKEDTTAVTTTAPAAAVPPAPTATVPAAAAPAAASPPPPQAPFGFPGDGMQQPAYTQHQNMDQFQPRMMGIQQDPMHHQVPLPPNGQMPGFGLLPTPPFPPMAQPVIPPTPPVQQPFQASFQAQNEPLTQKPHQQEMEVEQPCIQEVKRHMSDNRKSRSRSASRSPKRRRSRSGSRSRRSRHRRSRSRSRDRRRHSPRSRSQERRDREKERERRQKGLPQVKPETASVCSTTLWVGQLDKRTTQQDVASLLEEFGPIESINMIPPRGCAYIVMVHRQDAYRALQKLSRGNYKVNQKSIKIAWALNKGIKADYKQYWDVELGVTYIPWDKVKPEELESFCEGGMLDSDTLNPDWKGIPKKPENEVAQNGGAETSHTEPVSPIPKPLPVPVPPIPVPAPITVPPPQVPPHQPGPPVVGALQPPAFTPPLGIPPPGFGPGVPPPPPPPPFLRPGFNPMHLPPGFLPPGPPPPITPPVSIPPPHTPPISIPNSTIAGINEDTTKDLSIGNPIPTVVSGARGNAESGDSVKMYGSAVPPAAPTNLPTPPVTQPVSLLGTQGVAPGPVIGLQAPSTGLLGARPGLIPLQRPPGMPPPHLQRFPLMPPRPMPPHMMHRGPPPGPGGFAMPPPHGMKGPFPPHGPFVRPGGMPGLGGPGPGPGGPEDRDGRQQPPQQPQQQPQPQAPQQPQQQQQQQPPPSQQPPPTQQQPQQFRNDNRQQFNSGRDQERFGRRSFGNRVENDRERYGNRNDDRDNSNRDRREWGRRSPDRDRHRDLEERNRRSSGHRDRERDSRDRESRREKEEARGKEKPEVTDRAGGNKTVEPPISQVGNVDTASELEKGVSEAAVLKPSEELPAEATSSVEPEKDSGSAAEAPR
# Chain of proteins of U3A human fibrosarcoma cells (4462 proteins detected) (Homo sapiens, UniProt Q96SN8) (Q96SN8 whole entry): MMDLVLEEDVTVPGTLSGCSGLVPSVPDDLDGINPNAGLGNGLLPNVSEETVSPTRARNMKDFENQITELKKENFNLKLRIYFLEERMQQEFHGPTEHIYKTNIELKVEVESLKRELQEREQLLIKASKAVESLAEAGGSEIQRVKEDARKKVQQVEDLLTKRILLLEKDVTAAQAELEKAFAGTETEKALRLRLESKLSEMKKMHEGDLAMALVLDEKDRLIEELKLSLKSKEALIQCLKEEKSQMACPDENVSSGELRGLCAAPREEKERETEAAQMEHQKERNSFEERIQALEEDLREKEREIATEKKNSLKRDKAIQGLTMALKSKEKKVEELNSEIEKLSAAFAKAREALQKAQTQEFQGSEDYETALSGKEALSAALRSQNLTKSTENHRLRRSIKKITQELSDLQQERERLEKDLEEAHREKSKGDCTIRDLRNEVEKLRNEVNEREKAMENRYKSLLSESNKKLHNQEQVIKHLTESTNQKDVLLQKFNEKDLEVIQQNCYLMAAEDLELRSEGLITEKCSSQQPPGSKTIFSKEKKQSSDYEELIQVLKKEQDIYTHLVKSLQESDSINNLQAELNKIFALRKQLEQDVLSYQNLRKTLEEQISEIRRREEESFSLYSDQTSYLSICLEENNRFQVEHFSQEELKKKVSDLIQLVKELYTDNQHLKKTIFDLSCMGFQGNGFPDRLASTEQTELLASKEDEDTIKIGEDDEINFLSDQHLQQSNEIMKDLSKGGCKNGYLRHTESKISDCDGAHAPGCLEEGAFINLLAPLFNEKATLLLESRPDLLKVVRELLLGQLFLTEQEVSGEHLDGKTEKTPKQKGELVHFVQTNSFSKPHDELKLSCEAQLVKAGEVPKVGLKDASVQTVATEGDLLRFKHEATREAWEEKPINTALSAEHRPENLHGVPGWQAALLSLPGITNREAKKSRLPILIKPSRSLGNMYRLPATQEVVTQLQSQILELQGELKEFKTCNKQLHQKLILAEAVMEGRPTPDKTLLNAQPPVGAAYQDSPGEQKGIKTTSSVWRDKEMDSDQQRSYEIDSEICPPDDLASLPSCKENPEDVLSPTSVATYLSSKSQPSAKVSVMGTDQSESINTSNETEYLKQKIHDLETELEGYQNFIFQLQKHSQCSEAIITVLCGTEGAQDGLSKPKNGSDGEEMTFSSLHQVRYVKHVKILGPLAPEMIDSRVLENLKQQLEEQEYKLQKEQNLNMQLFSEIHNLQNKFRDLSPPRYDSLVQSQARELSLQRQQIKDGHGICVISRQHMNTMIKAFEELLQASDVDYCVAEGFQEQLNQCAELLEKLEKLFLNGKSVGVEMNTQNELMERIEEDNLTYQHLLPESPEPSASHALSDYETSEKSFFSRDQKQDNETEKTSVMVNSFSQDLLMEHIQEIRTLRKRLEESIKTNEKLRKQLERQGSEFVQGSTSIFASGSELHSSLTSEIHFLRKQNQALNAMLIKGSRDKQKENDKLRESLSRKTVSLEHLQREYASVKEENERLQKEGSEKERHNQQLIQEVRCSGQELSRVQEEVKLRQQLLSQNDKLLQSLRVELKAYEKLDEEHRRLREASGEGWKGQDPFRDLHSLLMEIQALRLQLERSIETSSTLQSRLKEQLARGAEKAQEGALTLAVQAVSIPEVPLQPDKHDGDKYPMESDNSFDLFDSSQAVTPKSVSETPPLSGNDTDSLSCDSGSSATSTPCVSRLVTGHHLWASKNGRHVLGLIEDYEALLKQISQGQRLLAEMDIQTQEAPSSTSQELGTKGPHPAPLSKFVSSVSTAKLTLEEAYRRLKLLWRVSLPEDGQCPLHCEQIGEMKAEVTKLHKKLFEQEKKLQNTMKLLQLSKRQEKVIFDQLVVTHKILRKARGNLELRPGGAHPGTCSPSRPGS
# Chain of proteins of U3A human fibrosarcoma cells (4462 proteins detected) (Homo sapiens, UniProt P78371) (P78371 whole entry): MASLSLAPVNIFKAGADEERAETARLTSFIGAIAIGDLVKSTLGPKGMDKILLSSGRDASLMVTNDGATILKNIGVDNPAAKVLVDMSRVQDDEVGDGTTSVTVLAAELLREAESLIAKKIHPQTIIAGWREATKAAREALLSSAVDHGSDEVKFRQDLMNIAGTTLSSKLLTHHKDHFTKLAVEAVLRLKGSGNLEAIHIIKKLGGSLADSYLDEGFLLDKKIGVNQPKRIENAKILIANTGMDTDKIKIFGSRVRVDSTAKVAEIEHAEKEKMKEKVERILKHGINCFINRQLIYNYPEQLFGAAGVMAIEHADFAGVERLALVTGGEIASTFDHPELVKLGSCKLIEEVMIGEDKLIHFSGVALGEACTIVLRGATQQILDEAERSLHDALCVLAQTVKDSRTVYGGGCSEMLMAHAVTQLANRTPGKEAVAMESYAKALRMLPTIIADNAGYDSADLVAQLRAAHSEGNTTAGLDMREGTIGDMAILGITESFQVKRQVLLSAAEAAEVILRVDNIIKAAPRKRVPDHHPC
# Chain of proteins of U3A human fibrosarcoma cells (4462 proteins detected) (Homo sapiens, UniProt Q86TB9) (Q86TB9 whole entry): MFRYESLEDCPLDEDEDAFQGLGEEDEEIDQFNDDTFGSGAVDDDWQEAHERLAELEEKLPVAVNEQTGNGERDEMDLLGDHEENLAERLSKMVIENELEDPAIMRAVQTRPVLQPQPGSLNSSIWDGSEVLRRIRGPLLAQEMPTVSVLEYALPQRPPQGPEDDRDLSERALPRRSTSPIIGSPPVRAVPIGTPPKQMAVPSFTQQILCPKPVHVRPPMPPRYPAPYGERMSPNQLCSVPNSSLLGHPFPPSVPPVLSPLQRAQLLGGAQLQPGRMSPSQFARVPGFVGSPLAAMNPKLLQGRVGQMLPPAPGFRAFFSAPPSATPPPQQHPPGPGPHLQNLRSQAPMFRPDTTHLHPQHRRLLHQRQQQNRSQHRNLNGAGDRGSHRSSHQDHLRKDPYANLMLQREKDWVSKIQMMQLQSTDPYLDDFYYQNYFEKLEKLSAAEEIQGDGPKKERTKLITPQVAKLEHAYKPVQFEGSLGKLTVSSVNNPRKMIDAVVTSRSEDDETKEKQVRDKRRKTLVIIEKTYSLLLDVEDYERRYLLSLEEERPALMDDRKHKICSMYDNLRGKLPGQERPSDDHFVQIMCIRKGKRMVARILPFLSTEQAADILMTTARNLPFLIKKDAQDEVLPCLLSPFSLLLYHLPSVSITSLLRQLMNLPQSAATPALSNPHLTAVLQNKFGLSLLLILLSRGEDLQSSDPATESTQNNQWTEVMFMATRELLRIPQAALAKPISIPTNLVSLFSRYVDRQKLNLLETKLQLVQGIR
# Chain of proteins of U3A human fibrosarcoma cells (4462 proteins detected) (Homo sapiens, UniProt Q9GZQ3) (Q9GZQ3 whole entry): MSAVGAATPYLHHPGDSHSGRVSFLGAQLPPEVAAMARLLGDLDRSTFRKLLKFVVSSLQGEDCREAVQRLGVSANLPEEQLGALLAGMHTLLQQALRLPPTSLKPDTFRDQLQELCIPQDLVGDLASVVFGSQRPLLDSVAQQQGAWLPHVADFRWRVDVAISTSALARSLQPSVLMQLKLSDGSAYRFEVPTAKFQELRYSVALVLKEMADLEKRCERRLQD
# Chain of proteins of U3A human fibrosarcoma cells (4462 proteins detected) (Homo sapiens, UniProt P00568) (P00568 whole entry): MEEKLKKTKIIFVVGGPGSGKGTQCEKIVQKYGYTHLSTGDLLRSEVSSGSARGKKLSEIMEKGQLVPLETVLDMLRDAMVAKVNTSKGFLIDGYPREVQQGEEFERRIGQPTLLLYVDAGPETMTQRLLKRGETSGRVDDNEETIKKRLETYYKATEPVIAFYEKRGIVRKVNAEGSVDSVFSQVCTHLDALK
smiles,measurement,setting,value
CCc1nc(N)nc(N)c1-c1ccc(Cl)cc1 [pyrimethamine],Log2 (PYR/DMSO),[1],0.17
same,Log2 (PYR/DMSO),[2],0.19
same,Log2 (PYR/DMSO),[3],0.19
same,Log2 (PYR/DMSO),[4],-0.04
same,Log2 (PYR/DMSO),[5],0.19
same,Log2 (PYR/DMSO),[6],-0.04
same,Log2 (PYR/DMSO),[7],-0.04
same,Log2 (PYR/DMSO),[8],0.20
same,Log2 (PYR/DMSO),[9],0.17
same,Log2 (PYR/DMSO),[10],0.16
same,Log2 (PYR/DMSO),[11],0.16
same,"Log2 (PYR/DMSO), GAMT",[12],-0.27
same,Log2 (PYR/DMSO),[13],0.14
same,Log2 (PYR/DMSO),[14],-0.04
same,Log2 (PYR/DMSO),[15],0.18
same,Log2 (PYR/DMSO),[16],0.16
same,Log2 (PYR/DMSO),[17],0.22
same,Log2 (PYR/DMSO),[18],0.20
same,Log2 (PYR/DMSO),[19],0.15
same,Log2 (PYR/DMSO),[20],0.16
same,"Log2 (PYR/DMSO), LENG8",[21],0.27
same,"Log2 (PYR/DMSO), CDK5RAP2",[22],-0.21
same,Log2 (PYR/DMSO),[23],0.17
same,Log2 (PYR/DMSO),[24],0.15
same,Log2 (PYR/DMSO),[25],0.21
same,Log2 (PYR/DMSO),[26],0.17
same,Log2 (PYR/DMSO),[27],0.20
same,Log2 (PYR/DMSO),[28],0.19
same,Log2 (PYR/DMSO),[29],0.15
same,Log2 (PYR/DMSO),[30],0.15
